Consider one molecule from article PMC6934184, “Selective DNA-PKcs inhibition extends the therapeutic index of localized radiotherapy and chemotherapy” (The Journal of Clinical Investigation, 2019).

Series [1] deals with orthotopic Calu-6 lung tumors. As to the kind of experiment: orthotopic Calu-6 lung tumor with thoracic radiation, bioluminescent imaging. To be noted: single dose 30 mg/kg + 10 Gy thoracic radiation. The format is in vivo. On the procedure: Orthotopic lung xenografts were generated following a published protocol ([54]) with minor modifications. Briefly, CD-1 nude mice (Charles River Laboratories) were anesthetized with 2% isoflurane and placed in the right lateral decubitus position. Luciferase-expressing Calu-6 cells (1 × 10^6) in 50 μL of 50% (vol/vol) Matrigel were injected into the left lateral thorax at the lateral dorsal axillary line, 1.5 cm above the lower rib line. The needle was advanced 5 mm into the thorax. After injection, the mouse was turned to the left lateral decubitus position for 5 minutes. […]
NSCLC subcutaneous xenografts were generated as previously described ( 53). […] Mouse weights and tumor volumes (1/2 x length x width x depth) were measured three times a week.
Targeted radiotherapy in subcutaneous and orthotopic NSCLC xenograft models When subcutaneous xenografts reached 100 mm3, mice were randomized into four groups (n = 7 - 11/group): (i) N-Methyl-2-pyrrolidone (NMP): 30% Encapsin : PEG400 (1:6:3 v/v/v) vehicle p.o. 30 minutes prior to mock radiation. […] The remaining mice were monitored for tumor growth until the sizes of tumo rs reached 400 mm 3 or up to 38 days after initiation of […]
Tumor growth in the remaining mice was monitored by bioluminescent imaging on days 0, 4, 8 and 15 post-treatment. […] Data were analyzed using LivingImage software (PerkinElmer). […]

In another series the test system is normal lung tissue. The series is described as follows: γH2AX-positive cells in normal lung after thoracic irradiation. Type of series: in vivo, mouse. To be noted: 24 hours after 10 Gy; NU5455 30 mg/kg oral. The procedure: combined with 10 Gy thorax irradiation ( n = 6 - 7/group). For whole-thorax irradiation, anaesthetized mice were placed in the supine position in a customized rig. The whole thorax was exposed to X-ray radiation generated by the Gulmay Medical RS320 irradiation system (2.034 Gy/minute). The rest of the body was protected by lead shields. Three mice fr om each treatment group were humanely killed 24 h ours after irradiation, and their tumors processed to permit immunohistochemical analysis .
Tumor growth in the remaining mice was monitored by bioluminescent imaging on days 0, 4, 8 and 15 post-treatment. Mice were injected with luciferin (150 mg/kg i.p., Santa Cruz Biotechnology) and bioluminescence images were acquired using the IVIS Spectrum (PerkinElmer) at 5 minute intervals until maximum light was collected. […] Data were analyzed using LivingImage software (PerkinElmer). […]
Tissues were fixed in 4% paraformaldehyde (PFA) and paraffin -embedded. […] One tissue section from each of 3 mice per group was examined, and the whole section (excluding necrotic areas) analyzed using ImageScope analysis software (Aperio Technologies). γH2AX and 53BP1 foci were manually counted in 200 nuclei from each tumor sample. The percentage of γH2AX and 53BP1 positive nuclei in lung epithelial cells was quantified manually in normal lung samples across 5 randomly-chosen fields of view per […]

For `CN(C(=O)CN1CCOCC1)c1ccc2sc3c(-c4cccc5c(=O)cc(N6CC7CCC(C6)O7)oc45)cccc3c2c1` [NU5455], the tolerability result in series [1] was “well tolerated”. For the same molecule, in series [1] (CD-1 nude mice), the “antitumor effect of radiation (time to 4-fold increase in bioluminescent signal)” value is given as “enhanced the antitumor effect of the radiation”. Also, the “number of γH2AX-positive cells in normal lung” value with normal lung tissue was “unaffected by NU5455 administration”.
